Results: ChEMBL document CHEMBL3991601, “The target landscape of clinical kinase drugs” (Science, 2017)
Activity calls are given as the source filed them. Rule as the data show it, for most assays here: actives have a measured Kd and inactives only a lower limit.

Key:
[1] = target: Ribosomal protein S6 kinase alpha-6 (Homo sapiens, UniProt Q9UK32)
[2] = target: cAMP-dependent protein kinase catalytic subunit alpha (Homo sapiens, UniProt P17612)
[3] = target: T1, ATP-dependent RNA helicase DDX42 (Homo sapiens, UniProt Q86XP3)
T1 sequence (Q86XP3 whole entry): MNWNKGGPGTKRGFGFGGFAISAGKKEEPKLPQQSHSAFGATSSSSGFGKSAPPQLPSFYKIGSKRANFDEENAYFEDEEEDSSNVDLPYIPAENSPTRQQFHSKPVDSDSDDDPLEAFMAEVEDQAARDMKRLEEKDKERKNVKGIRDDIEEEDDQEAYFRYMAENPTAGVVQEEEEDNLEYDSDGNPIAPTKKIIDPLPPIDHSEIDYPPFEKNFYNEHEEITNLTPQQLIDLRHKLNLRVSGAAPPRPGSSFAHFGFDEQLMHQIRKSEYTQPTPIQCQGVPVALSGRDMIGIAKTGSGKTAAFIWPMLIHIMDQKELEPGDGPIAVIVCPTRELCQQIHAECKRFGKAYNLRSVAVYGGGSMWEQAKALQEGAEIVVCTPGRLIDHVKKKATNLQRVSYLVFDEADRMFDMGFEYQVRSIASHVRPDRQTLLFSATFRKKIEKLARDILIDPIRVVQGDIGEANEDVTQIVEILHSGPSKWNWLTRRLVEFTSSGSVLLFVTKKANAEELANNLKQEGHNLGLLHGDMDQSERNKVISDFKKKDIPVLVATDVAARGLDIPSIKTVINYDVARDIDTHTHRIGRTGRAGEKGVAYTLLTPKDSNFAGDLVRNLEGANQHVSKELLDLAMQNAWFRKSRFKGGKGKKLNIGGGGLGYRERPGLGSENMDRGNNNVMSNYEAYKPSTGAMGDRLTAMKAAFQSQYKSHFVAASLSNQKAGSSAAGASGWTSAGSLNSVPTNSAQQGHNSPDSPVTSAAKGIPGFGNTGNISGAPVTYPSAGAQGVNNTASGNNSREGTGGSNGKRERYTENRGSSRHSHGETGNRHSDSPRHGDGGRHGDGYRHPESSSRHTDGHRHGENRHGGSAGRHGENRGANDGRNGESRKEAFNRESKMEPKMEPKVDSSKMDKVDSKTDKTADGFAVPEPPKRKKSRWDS

Ephrin type-A receptor 2 = Ephrin type-A receptor 2 (Homo sapiens, UniProt P29317)
LIM domain kinase 2 = LIM domain kinase 2 (Homo sapiens, UniProt P53671)
[4] = target: T2, Serine/threonine-protein kinase ULK3 (Homo sapiens, UniProt Q6PHR2)
T2 sequence (Q6PHR2 whole entry): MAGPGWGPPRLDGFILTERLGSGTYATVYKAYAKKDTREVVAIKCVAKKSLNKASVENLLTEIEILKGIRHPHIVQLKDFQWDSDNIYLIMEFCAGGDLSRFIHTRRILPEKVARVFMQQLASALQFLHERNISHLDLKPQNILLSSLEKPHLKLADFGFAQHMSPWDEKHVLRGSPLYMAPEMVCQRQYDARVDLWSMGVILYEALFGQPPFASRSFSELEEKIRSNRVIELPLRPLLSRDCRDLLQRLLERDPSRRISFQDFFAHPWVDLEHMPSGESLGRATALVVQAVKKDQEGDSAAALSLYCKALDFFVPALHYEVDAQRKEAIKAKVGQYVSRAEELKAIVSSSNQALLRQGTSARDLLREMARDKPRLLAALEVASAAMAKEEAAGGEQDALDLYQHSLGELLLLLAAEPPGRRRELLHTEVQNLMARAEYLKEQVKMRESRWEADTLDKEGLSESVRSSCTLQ

[5] = target: Bone morphogenetic protein receptor type-1B (Homo sapiens, UniProt O00238)
[6] = target: T3, Mitogen-activated protein kinase kinase kinase 6 (Homo sapiens, UniProt O95382)
T3 sequence (O95382 whole entry): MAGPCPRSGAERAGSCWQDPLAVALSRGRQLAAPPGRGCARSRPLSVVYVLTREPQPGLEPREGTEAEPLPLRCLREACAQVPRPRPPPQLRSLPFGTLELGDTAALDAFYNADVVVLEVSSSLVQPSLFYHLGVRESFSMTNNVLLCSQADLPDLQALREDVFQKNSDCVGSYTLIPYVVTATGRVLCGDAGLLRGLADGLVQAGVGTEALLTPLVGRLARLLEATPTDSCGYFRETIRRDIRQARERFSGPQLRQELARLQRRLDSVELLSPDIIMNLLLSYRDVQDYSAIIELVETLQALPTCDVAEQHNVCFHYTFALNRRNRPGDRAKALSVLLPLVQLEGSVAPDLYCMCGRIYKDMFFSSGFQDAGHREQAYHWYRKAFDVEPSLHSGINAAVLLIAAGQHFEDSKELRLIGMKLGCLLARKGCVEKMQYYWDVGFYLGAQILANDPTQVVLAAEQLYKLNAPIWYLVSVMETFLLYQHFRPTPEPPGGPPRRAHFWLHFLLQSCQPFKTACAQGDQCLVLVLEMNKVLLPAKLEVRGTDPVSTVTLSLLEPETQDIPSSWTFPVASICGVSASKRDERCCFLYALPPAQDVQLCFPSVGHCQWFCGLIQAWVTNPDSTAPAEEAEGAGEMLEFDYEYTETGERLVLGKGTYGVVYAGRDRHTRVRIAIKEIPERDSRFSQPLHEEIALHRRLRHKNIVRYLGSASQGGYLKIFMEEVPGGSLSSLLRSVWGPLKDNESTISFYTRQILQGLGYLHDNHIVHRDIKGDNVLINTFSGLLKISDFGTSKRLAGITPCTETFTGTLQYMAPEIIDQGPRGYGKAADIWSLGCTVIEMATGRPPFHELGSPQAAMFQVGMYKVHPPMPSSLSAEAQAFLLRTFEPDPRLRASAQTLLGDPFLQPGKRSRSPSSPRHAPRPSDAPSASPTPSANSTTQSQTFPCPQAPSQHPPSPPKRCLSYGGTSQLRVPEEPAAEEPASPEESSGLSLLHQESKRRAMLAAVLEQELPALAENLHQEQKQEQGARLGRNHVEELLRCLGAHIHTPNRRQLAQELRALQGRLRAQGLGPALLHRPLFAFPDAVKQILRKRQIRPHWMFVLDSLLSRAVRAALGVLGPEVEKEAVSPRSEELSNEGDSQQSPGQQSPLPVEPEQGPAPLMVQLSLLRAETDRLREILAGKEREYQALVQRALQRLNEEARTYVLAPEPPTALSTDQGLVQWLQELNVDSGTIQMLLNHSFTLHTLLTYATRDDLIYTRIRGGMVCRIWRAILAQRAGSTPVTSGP

[7] = target: Mitogen-activated protein kinase 8 (Homo sapiens, UniProt P45983)
Also: in the data inactive means no Kd found up to 30 µM.

Chain of Ribosomal protein S6 kinase alpha-6 (Q9UK32 whole entry): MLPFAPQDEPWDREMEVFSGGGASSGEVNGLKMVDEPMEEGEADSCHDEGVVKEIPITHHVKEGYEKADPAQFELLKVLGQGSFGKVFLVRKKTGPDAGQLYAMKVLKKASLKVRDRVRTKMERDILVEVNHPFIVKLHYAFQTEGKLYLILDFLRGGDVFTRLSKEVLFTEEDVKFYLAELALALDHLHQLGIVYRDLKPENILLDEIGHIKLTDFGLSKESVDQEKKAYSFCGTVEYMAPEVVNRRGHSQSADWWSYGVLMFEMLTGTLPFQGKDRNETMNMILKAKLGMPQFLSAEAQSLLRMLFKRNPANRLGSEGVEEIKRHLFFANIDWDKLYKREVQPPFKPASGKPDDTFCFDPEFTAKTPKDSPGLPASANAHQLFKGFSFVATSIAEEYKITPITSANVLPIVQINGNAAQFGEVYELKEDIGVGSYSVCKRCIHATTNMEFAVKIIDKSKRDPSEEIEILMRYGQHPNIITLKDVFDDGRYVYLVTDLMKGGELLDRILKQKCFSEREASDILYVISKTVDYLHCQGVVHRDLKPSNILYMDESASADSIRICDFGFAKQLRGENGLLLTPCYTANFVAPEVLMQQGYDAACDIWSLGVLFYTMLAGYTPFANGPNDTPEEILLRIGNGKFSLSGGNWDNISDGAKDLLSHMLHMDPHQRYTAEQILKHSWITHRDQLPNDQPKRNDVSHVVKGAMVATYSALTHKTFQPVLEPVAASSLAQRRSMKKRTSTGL
Chain of Bone morphogenetic protein receptor type-1B (O00238 whole entry): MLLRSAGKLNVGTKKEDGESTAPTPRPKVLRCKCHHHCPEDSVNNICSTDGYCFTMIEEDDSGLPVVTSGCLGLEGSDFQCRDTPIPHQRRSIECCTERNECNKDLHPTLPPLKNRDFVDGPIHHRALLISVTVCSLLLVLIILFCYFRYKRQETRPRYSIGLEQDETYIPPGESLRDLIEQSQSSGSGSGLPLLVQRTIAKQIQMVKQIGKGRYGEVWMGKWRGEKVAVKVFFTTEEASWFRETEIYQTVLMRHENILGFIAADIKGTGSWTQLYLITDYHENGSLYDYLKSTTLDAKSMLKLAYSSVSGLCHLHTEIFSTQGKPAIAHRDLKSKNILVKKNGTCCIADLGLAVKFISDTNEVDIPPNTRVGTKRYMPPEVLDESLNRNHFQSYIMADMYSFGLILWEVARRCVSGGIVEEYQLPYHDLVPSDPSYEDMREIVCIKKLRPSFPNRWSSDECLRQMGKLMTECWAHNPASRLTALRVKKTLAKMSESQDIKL
Chain of Ephrin type-A receptor 2 (P29317 whole entry, the tested form may be a part): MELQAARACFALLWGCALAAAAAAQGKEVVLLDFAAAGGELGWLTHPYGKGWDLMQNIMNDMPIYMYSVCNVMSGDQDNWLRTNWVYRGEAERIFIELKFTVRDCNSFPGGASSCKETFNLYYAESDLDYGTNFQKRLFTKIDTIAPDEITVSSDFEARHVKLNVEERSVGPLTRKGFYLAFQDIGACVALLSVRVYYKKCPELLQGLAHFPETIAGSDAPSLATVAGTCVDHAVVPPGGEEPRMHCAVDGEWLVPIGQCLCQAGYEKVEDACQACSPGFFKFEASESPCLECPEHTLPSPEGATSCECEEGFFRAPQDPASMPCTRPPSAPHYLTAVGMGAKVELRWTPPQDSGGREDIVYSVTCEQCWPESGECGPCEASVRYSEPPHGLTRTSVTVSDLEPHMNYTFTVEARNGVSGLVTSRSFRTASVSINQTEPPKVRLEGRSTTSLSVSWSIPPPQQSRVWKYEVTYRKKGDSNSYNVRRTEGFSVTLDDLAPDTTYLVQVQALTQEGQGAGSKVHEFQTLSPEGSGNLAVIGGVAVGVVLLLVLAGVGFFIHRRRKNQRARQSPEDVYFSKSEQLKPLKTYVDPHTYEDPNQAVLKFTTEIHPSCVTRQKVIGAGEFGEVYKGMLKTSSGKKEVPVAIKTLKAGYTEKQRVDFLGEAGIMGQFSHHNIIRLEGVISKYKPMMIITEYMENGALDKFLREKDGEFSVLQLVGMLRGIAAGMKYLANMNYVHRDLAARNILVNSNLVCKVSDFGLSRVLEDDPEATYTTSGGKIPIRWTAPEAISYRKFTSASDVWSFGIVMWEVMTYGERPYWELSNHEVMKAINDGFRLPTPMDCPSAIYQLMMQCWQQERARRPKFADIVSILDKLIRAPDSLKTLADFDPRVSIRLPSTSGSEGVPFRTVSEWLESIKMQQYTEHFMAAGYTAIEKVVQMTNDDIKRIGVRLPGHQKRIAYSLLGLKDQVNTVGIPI
Chain of Mitogen-activated protein kinase 8 (P45983 whole entry): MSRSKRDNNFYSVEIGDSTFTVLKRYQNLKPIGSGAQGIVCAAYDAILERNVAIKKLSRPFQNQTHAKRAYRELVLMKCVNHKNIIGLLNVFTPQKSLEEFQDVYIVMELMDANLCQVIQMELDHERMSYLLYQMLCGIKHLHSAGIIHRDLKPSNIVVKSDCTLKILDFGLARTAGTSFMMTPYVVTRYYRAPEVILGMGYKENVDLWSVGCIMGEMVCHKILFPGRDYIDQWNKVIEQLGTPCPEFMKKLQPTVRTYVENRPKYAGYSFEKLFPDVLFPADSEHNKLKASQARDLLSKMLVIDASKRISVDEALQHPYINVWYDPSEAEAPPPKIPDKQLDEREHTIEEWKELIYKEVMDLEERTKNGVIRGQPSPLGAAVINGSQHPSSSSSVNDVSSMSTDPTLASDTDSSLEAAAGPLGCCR
Chain of LIM domain kinase 2 (P53671 whole entry, the tested form may be a part): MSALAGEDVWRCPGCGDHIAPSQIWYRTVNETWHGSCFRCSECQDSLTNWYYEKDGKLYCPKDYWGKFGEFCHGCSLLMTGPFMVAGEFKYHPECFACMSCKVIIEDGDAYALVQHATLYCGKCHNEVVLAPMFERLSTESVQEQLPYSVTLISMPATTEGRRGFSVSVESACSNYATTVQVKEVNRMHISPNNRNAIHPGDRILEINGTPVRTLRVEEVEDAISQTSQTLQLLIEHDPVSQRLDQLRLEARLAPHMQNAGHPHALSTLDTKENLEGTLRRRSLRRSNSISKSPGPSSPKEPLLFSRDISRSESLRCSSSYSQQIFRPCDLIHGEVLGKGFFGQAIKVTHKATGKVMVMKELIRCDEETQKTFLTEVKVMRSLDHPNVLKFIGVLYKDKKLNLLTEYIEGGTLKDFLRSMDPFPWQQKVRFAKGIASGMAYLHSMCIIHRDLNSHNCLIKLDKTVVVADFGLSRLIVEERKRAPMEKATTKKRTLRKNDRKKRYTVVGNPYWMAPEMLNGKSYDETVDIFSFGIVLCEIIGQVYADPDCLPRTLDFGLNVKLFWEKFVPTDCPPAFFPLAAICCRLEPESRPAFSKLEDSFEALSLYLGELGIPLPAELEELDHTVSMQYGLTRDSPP

Row | Structure (SMILES) | Kd [1] | Kd [2] | Kd [3] | Kd (Ephrin type-A receptor 2) | Kd (LIM domain kinase 2) | Kd [4] | Kd [5] | Kd [6] | Kd [7]
1 | Cn1cc(-c2[nH]c3cc(NC(=O)[C@H](N)C4CCCCC4)cc4c3c2C=NNC4=O)cn1 | 2.38 µM (active) | > 30 µM (inactive) | > 30 µM (inactive) | > 30 µM (inactive) | 0.205 µM (active) | 1.17 µM (active) | 2.01 µM (active) | > 30 µM (inactive) | > 30 µM (inactive)
2 | NC(=O)c1ccc(N(C(N)=O)c2c(F)cccc2F)nc1-c1ccc(F)cc1F [VX-702] | > 30 µM (inactive) | > 30 µM (inactive) | > 30 µM (inactive) | > 30 µM (inactive) | > 30 µM (inactive) | > 30 µM (inactive) | > 30 µM (inactive) | > 30 µM (inactive) | > 30 µM (inactive)
3 | COc1cc2ncnc(Nc3ccc(F)c(Cl)c3)c2cc1NC(=O)/C=C/CN1CCCCC1 [DACOMITINIB ANHYDROUS] | > 30 µM (inactive) | > 30 µM (inactive) | > 30 µM (inactive) | > 30 µM (inactive) | > 30 µM (inactive) | > 30 µM (inactive) | > 30 µM (inactive) | > 30 µM (inactive) | > 30 µM (inactive)
4 | S=C(NCc1ccc2c(c1)OCO2)N1CCN(c2ncnc3c2oc2ccccc23)CC1 [AMUVATINIB] | > 30 µM (inactive) | > 30 µM (inactive) | > 30 µM (inactive) | > 30 µM (inactive) | > 30 µM (inactive) | > 30 µM (inactive) | > 30 µM (inactive) | > 30 µM (inactive) | > 30 µM (inactive)
5 | C#Cc1cccc(Nc2ncnc3cc4c(cc23)OCCOCCOCCO4)c1 [ICOTINIB] | > 30 µM (inactive) | > 30 µM (inactive) | > 30 µM (inactive) | > 30 µM (inactive) | > 30 µM (inactive) | > 30 µM (inactive) | > 30 µM (inactive) | > 30 µM (inactive) | > 30 µM (inactive)
6 | COc1cc2ncnc(Nc3ccc(O)cc3)c2cc1OC [WHI-P131] | 5.9 µM (active) | > 30 µM (inactive) | > 30 µM (inactive) | > 30 µM (inactive) | > 30 µM (inactive) | > 30 µM (inactive) | > 30 µM (inactive) | > 30 µM (inactive) | > 30 µM (inactive)
7 | C=CC(=O)Nc1cc(Nc2nccc(-c3cn(C)c4ccccc34)n2)c(OC)cc1N(C)CCN(C)C [OSIMERTINIB] | > 30 µM (inactive) | > 30 µM (inactive) | > 30 µM (inactive) | > 30 µM (inactive) | > 30 µM (inactive) | > 30 µM (inactive) | > 30 µM (inactive) | > 30 µM (inactive) | > 30 µM (inactive)
8 | FC(F)(F)c1ccc(CNc2ccc(Cc3c[nH]c4ncc(Cl)cc34)cn2)cn1 [PEXIDARTINIB] | > 30 µM (inactive) | > 30 µM (inactive) | > 30 µM (inactive) | > 30 µM (inactive) | > 30 µM (inactive) | > 30 µM (inactive) | > 30 µM (inactive) | > 30 µM (inactive) | > 30 µM (inactive)
9 | COc1ccc2c(OCc3nnc4ccc(-c5ccccc5)nn34)ccnc2c1 [AMG-208] | > 30 µM (inactive) | > 30 µM (inactive) | > 30 µM (inactive) | > 30 µM (inactive) | > 30 µM (inactive) | > 30 µM (inactive) | > 30 µM (inactive) | > 30 µM (inactive) | > 30 µM (inactive)
10 | CCN1CCN(Cc2ccc(Nc3ncc(F)c(-c4cc(F)c5nc(C)n(C(C)C)c5c4)n3)nc2)CC1 [ABEMACICLIB] | > 30 µM (inactive) | > 30 µM (inactive) | > 30 µM (inactive) | > 30 µM (inactive) | > 30 µM (inactive) | > 30 µM (inactive) | > 30 µM (inactive) | > 30 µM (inactive) | 3.76 µM (active)
11 | CC1(COc2ccc3c(c2)ncn3-c2ccc3cccc(N4CCC(N)CC4)c3n2)COC1 [CRENOLANIB] | 1.98 µM (active) | > 30 µM (inactive) | > 30 µM (inactive) | > 30 µM (inactive) | > 30 µM (inactive) | > 30 µM (inactive) | > 30 µM (inactive) | > 30 µM (inactive) | > 30 µM (inactive)
